Where two headings read alike, the source gives them in different places. Starred links: 1 amine or outer side, 2 acyl side, 3 side chain; linkers in the order of their positions; H or OH if unused. Positions of bridges follow the written chain, without caps; N, C: chain ends. Non-standard residues stand in square brackets, D forms with d. Residues, ends and D or L forms follow the SMILES beside them. Groups on a side chain read outwards from the residue. *: point of attachment. Trp(1-Me) = Cn1cc(C[C@H](N)C(=O)O)c2ccccc21; C18 diacid = O=C(O)CCCCCCCCCCCCCCCCC(=O)*; γGlu = O=C(O)[C@H](CCC(=O)[*:2])N[*:1]; Sar = CNCC(=O)O
Assays:
[1] = system: classical complement pathway; test: In vitro haemolysis assay (inhibition of classical complement pathway); assay type: cell-based, human
Procedure: Method The in vitro effect of test compounds was assessed by measuring their inhibitory effect of the classical complement pathway in a haemolysis assay. Briefly, test compounds and reference compounds were dissolved in DMSO and diluted in Tris/Casein Assay Buffer (10 mM Tris, 145 mM NaCl, 0.5 mM MgCl2, 0.15 mM CaCl2, and 0.1% W/V Casein, adjusted to pH 7.4) as 9-point serial dilutions in a 96 well plate. Sensitized sheep red blood cells (RBC) coated with rabbit anti-sheep erythrocyte antiserum (Complement Technology, Inc., TX, USA) were washed in Tris/Casein Assay Buffer. 50 μL from each well of diluted compound was added to a 96-well plate containing 50 μL diluted human serum (Complement Technology, Inc., TX, USA) and incubated for 15 minutes at room temperature. The serum dilution factor was optimized for every serum batch to obtain 70-90% of maximal haemolysis using the protocol. Then 50 μL sensitized sheep red blood cells were added to all wells ([…] per well). After 30 minutes of incubation at 37° C. with gentle agitation, the reaction was stopped by addition of 50 μL Tris STOP Buffer per well (10 mM EDTA, 10 mM Tris, 145 mM NaCl adjusted to pH 7.4). The RBCs were then removed by centrifugation and the resulting supernatant measured for hemolysis by absorbance at 405 nm. The response was normalized relative to a positive and negative control (vehicle) to calculate the IC50 from the concentration response curve using the 4-parameter logistic (4PL) nonlinear model for curve fitting.

[2] = Solubility test at 10 mg/mL (visual inspection and light scattering); assay type: physicochemical; settings: for Solubility, Condition 1 Acetate pH 4: 10 mg/mL compound in 100 mM acetate pH 4; for Solubility, Condition 2 Acetate pH 5: 10 mg/mL compound in 100 mM acetate pH 5; for Solubility, Condition 3 Phosphate pH 6: 10 mg/mL compound in 100 mM phosphate pH 6; for Solubility, Condition 4 Phosphate pH 7: 10 mg/mL compound in 100 mM phosphate pH 7; for Solubility, Condition 5 Phosphate pH 7.5: 10 mg/mL compound in 100 mM phosphate pH 7.5
Procedure: The solubility of compounds was assessed by measuring light scattering over a pH interval from pH 4 to pH 7.5.
Compounds were dissolved in a stock solution of 20 mg/mL in H2O at pH 2.5 or pH 10.
These stock solutions were diluted 1:1 with 200 mM buffered solution to reach a final solution of 10 mg/mL compound in 100 mM buffer. The 5 investigated conditions were (1) acetate pH 4.0, (2) acetate pH 5.0, (3) phosphate pH 6.0, (4) phosphate pH 7 and (5) phosphate pH 7.5.
Visual inspection included manually checking the 96 well plate for wells that are clear or non-clear. In addition to this a picture of the 96 well plate is taken.
Absorbance was measured at four wavelengths: 280 nm, 325 nm, 340 nm and 360 nm in an UV transparent 96 well microplate in a SpectraMax 190 microplate reader (Molecular Devices).
The criteria for this was a combination of visual inspection and light scattering not exceeding 0.1 AU, where values below 0.1 AU are good in visually clear samples. […]

[3] = Table 3, human serum, sensitized sheep red blood cells, read-out: IC50[nM], in vitro analysis of inhibition of hemolysis

SMILES: CC[C@H](C)[C@@H]1NC(=O)[C@@H](NC(=O)[C@H](Cc2ccc(O)cc2)NC(=O)[C@H](C)NC(=O)[C@H](CO)NC(=O)[C@H](CO)NC(=O)[C@H](CCC(=O)O)NC(C)=O)CSSC[C@@H](C(=O)N[C@H](C(N)=O)[C@@H](C)O)NC(=O)[C@H](CCCNC(=N)N)NC(=O)[C@H](Cc2c[nH]cn2)NC(=O)[C@H](CCC(=O)O)NC(=O)CNC(=O)[C@H](Cc2c[nH]c3ccccc23)NC(=O)[C@H](CC(=O)O)NC(=O)[C@H](CCC(N)=O)NC(=O)[C@H](Cc2c[nH]c3ccccc23)NC1=O [Compound 10] (Ac-ESSAYCIWQDWGEHRCT-NH2; disulfide 6-16)
- IC50 [1, 3]: < 100 nM

SMILES: CC[C@H](C)[C@H](NC(C)=O)C(=O)N[C@H]1CSSC[C@@H](C(=O)N[C@H](C(N)=O)[C@@H](C)O)NC(=O)[C@H](CCCNC(=N)N)NC(=O)[C@H](Cc2c[nH]cn2)NC(=O)[C@H](CCC(=O)O)NC(=O)CNC(=O)[C@H](Cc2c[nH]c3ccccc23)NC(=O)[C@H](CCCCN)NC(=O)[C@H](CCC(N)=O)NC(=O)[C@H](Cc2c[nH]c3ccccc23)NC(=O)[C@H]([C@@H](C)CC)NC1=O [Compound 7] (Ac-ICIWQKWGEHRCT-NH2; disulfide 2-12)
- IC50 [1, 3]: < 1000 nM

SMILES: CC[C@H](C)[C@@H]1NC(=O)[C@@H](NC(=O)[C@H](Cc2ccccc2)NC(=O)[C@H](CCC(=O)O)NC(=O)[C@H](CO)NC(C)=O)CSSC[C@@H](C(=O)N[C@H](C(=O)N[C@@H](CCC(=O)O)C(=O)N[C@@H](CCCCN)C(=O)N[C@@H](CCC(=O)NCC(=O)NCC(=O)NCC(=O)N[C@@H](CCCCNC(=O)CC[C@H](NC(=O)CNC(=O)CC[C@H](NC(=O)CCCCCCCCCCCCCCCCC(=O)O)C(=O)O)C(=O)O)C(N)=O)C(=O)O)[C@@H](C)O)NC(=O)[C@H](CCCNC(=N)N)NC(=O)[C@H](Cc2c[nH]cn2)NC(=O)[C@H](CCC(=O)O)NC(=O)CNC(=O)[C@H](Cc2c[nH]c3ccccc23)NC(=O)[C@H](CC(=O)O)NC(=O)[C@H](CCC(N)=O)NC(=O)[C@H](Cc2cn(C)c3ccccc23)NC1=O [Compound 133] (Ac-SEFCI[Trp(1-Me)]QDWGEHRCTEK[γGlu]GGGK([γGlu-Gly-γGlu-C18 diacid])-NH2; disulfide 4-14)
- IC50 [1, 3]: < 100 nM

SMILES: CC[C@H](C)[C@H](NC(C)=O)C(=O)N[C@H]1CSSC[C@@H](C(=O)N[C@H](C(N)=O)[C@@H](C)O)NC(=O)[C@H](CO)NC(=O)[C@H](Cc2c[nH]cn2)NC(=O)[C@H](CCC(=O)O)NC(=O)CNC(=O)[C@H](Cc2c[nH]c3ccccc23)NC(=O)[C@H](CC(=O)O)NC(=O)[C@H](CCC(N)=O)NC(=O)[C@H](Cc2c[nH]c3ccccc23)NC(=O)[C@H](C(C)C)NC1=O [F, reference compound] (Ac-ICVWQDWGEHSCT-NH2; disulfide 2-12)
- IC50 ([1]; Table 4, valine 3 versus isoleucine 3 pairs, read-out: CP hemolysis IC50): 540 nM

SMILES: CC[C@H](C)[C@H](NC(C)=O)C(=O)N[C@H]1CSSC[C@@H](C(=O)N[C@H](C(N)=O)[C@@H](C)O)NC(=O)[C@H](CCCNC(=N)N)NC(=O)[C@H](Cc2c[nH]cn2)NC(=O)[C@H](C)NC(=O)CNC(=O)[C@H](Cc2c[nH]c3ccccc23)NC(=O)[C@H](CC(=O)O)NC(=O)[C@H](CCC(N)=O)NC(=O)[C@H](Cc2c[nH]c3ccccc23)NC(=O)[C@H](C(C)C)NC1=O [Compound 4W9A, reference compound]
- IC50 ([1]; Table 2, human serum, sensitized sheep red blood cells, read-out: CP hemolysis IC50): 250 nM
- IC50 [1, 3]: < 500 nM

SMILES: CC[C@H](C)[C@H](NC(=O)CNC(=O)[C@H](CCCCN)NC(=O)[C@H](CCC(=O)O)NC(C)=O)C(=O)N[C@H]1CSSC[C@@H](C(=O)N[C@H](C(=O)N[C@@H](CCC(=O)O)C(=O)N[C@@H](CCCCN)C(=O)N2CCC[C@H]2C(N)=O)[C@@H](C)O)NC(=O)[C@H](CCCNC(=N)N)NC(=O)[C@H](Cc2c[nH]cn2)NC(=O)[C@H](CCC(=O)O)NC(=O)CNC(=O)[C@H](Cc2c[nH]c3ccccc23)NC(=O)[C@H](CC(=O)O)NC(=O)[C@H](CCC(N)=O)NC(=O)[C@H](Cc2c[nH]c3ccccc23)NC(=O)[C@H]([C@@H](C)CC)NC1=O [Compound 38] (Ac-EKGICIWQDWGEHRCTEKP-NH2; disulfide 5-15)
- IC50 [1, 3]: < 250 nM

SMILES: CC[C@H](C)[C@@H]1NC(=O)[C@@H](NC(=O)[C@H](Cc2ccccc2)NC(=O)[C@H](CCC(=O)O)NC(=O)[C@H](CO)NC(C)=O)CSSC[C@@H](C(=O)N(C)CC(=O)N[C@@H](CCC(=O)O)C(=O)N[C@@H](C)C(N)=O)NC(=O)[C@H](CCCNC(=N)N)NC(=O)[C@H](Cc2c[nH]cn2)NC(=O)[C@H](CCC(=O)O)NC(=O)CNC(=O)[C@H](Cc2c[nH]c3ccccc23)NC(=O)[C@H](CCC(=O)O)NC(=O)[C@H](CCC(N)=O)NC(=O)[C@H](Cc2cn(C)c3ccccc23)NC1=O [Compound 83] (Ac-SEFCI[Trp(1-Me)]QEWGEHRC[Sar]EA-NH2; disulfide 4-14)
- IC50 [1, 3]: < 100 nM

SMILES: CC[C@H](C)[C@@H]1NC(=O)[C@@H](NC(=O)[C@H](Cc2ccc(O)cc2)NC(=O)[C@H](CCC(=O)O)NC(=O)[C@H](CO)NC(C)=O)CSSC[C@@H](C(=O)N(C)CC(=O)N[C@@H](CCC(=O)O)C(=O)NCC(=O)N[C@@H](CCC(=O)O)C(=O)N[C@@H](CCCCNC(=O)CC[C@H](NC(=O)[C@H](CCCCN)NC(=O)CC[C@H](NC(=O)CCCCCCCCCCCCCCCCC(=O)O)C(=O)O)C(=O)O)C(N)=O)NC(=O)[C@H](CCCNC(=N)N)NC(=O)[C@H](Cc2c[nH]cn2)NC(=O)[C@H](CCC(=O)O)NC(=O)CNC(=O)[C@H](Cc2c[nH]c3ccccc23)NC(=O)[C@H](CC(=O)O)NC(=O)[C@H](CCC(N)=O)NC(=O)[C@H](Cc2cn(C)c3ccccc23)NC1=O [Compound 116] (Ac-SEYCI[Trp(1-Me)]QDWGEHRC[Sar]EGEK([γGlu-Lys-γGlu-C18 diacid])-NH2; disulfide 4-14)
- Solubility, Condition 1 Acetate pH 4 [2]: − (denotes lack of solubility at the given condition, as UV absorbance at 340 nm exceeds 0.1 AU and/or it is visibly turbid or contains particles.)
- Solubility, Condition 2 Acetate pH 5 [2]: − (denotes lack of solubility at the given condition, as UV absorbance at 340 nm exceeds 0.1 AU and/or it is visibly turbid or contains particles.)
- Solubility, Condition 3 Phosphate pH 6 [2]: + (denotes solubility at the given condition, as determined by UV absorbance being less than 0.1 AU at 340 nm and the sample being clear when manually inspected.)
- Solubility, Condition 4 Phosphate pH 7 [2]: + (denotes solubility at the given condition, as determined by UV absorbance being less than 0.1 AU at 340 nm and the sample being clear when manually inspected.)
- Solubility, Condition 5 Phosphate pH 7.5 [2]: + (denotes solubility at the given condition, as determined by UV absorbance being less than 0.1 AU at 340 nm and the sample being clear when manually inspected.)

SMILES: CC[C@H](C)[C@@H]1NC(=O)[C@@H](NC(=O)[C@H](Cc2ccc(O)cc2)NC(=O)[C@H](C)NC(=O)[C@H](CO)NC(C)=O)CSSC[C@@H](C(=O)N(C)CC(=O)N[C@@H](CCC(=O)O)C(=O)N[C@@H](CCCCNC(=O)CC[C@H](NC(=O)CNC(=O)[C@H](CCCCN)NC(=O)CC[C@H](NC(=O)CCCCCCCCCCCCCCCCC(=O)O)C(=O)O)C(=O)O)C(N)=O)NC(=O)[C@H](CCCNC(=N)N)NC(=O)[C@H](Cc2c[nH]cn2)NC(=O)[C@H](CCC(=O)O)NC(=O)CNC(=O)[C@H](Cc2c[nH]c3ccccc23)NC(=O)[C@H](CC(=O)O)NC(=O)[C@H](CCC(N)=O)NC(=O)[C@H](Cc2cn(C)c3ccccc23)NC1=O [Compound 105] (Ac-SAYCI[Trp(1-Me)]QDWGEHRC[Sar]EK([γGlu-Gly-Lys-γGlu-C18 diacid])-NH2; disulfide 4-14)
- Solubility, Condition 1 Acetate pH 4 [2]: − (denotes lack of solubility at the given condition, as UV absorbance at 340 nm exceeds 0.1 AU and/or it is visibly turbid or contains particles.)
- Solubility, Condition 2 Acetate pH 5 [2]: − (denotes lack of solubility at the given condition, as UV absorbance at 340 nm exceeds 0.1 AU and/or it is visibly turbid or contains particles.)
- Solubility, Condition 3 Phosphate pH 6 [2]: + (denotes solubility at the given condition, as determined by UV absorbance being less than 0.1 AU at 340 nm and the sample being clear when manually inspected.)
- Solubility, Condition 4 Phosphate pH 7 [2]: + (denotes solubility at the given condition, as determined by UV absorbance being less than 0.1 AU at 340 nm and the sample being clear when manually inspected.)
- Solubility, Condition 5 Phosphate pH 7.5 [2]: + (denotes solubility at the given condition, as determined by UV absorbance being less than 0.1 AU at 340 nm and the sample being clear when manually inspected.)

— patent US20220306695A1, “COMPSTATIN ANALOGUES AND THEIR MEDICAL USES” (priority 2019, published 2022)
